# Publication PMC13091788 (NPJ Aging, 2026)
# Tests used:
# C2C12 cells = assay: Mitochondrial ROS (4-HNE in isolated mitochondrial fractions); format: cell-based, mouse; conditions: C2C12, Q-BRB or AcA-BRB 5 or 10 μM, 24 h
# Description: Proteins in sample buffer were separated by SDS-PAGE and transferred to Immobilon-P PVDF membranes (IPVH00010, Millipore). Blots were probed with the indicated antibodies, and protein bands on the blot were visualized using Chemi-Lumi One L (07880-70, Nacalai Tesque) or Immobilon Western Chemiluminescent HRP Substrate (WBKLS0500, Millipore). Band images were captured using a LuminoGraph I imager (WSE-6100, ATTO). Relative band intensities were quantified using Fiji/ImageJ software. Unprocessed western blot images corresponding to the data presented in the main and supplementary figures are provided in Supplementary Figures 11–16. Mitochondria were isolated using differential centrifugation. Cells were washed twice with ice-cold PBS, harvested by scraping, and collected by centrifugation at 500 × g for 5 min at 4 °C. The resulting cell pellets were resuspended in ice-cold mitochondrial isolation buffer (250 mM sucrose, 10 mM HEPES-KOH pH 7.4, 1 mM EDTA, and protease inhibitor cocktail) and incubated on ice for 10 min. Cells were mechanically disrupted on ice using a 27 G needle. The homogenates were centrifuged at 800 × g for 10 min at 4 °C to remove nuclei and cellular debris. The supernatants were transferred to new tubes and centrifuged at 8000 × g for 10 min at 4 °C to obtain the mitochondrial fraction. […] Protein concentration was measured using the BCA Protein Assay Kit (Takara Bio).
# 86-week-old aged mice = assay: Survival analysis in aged mice on normal diet; format: in vivo, mouse; conditions: 0.5 mg/mL in drinking water, from 86 weeks of age
# Description: All experimental procedures were approved by the Ethics Review Committee for Animal Experimentation at Kumamoto University, Kumamoto, Japan (approval No. A 2024-083). Procedures followed the guidelines and recommendations outlined by the ILAR Guide for the Care and Use of Laboratory Animals (8th Edition, 2011). Prior to tissue collection, mice were euthanized under isoflurane anesthesia, followed by cervical dislocation to ensure rapid euthanasia, a procedure also employed during sacrifice for tissue harvesting. Euthanasia was performed when animals met the established criteria for humane endpoints, specifically a body weight loss exceeding 20% over a 3-day period or 25% over a 1-week period, in accordance with the Kumamoto University Ethics Review Committee for Animal Experimentation above. All animals fed a normal diet (CE-2, CLEA) were randomly assigned to two groups: tap water only and tap water supplemented with AcA-BRB (0.5 mg/mL). Mice were housed in an animal facility with lighting cycles automatically controlled (12 h light/12 h dark), maintained at a stable temperature of 22 ± 2 °C and a relative humidity of 40–80%. C57BL/6NJcl wild-type (WT) male mice aged 2, 20, and 24 months were used in this study.
# [1] = tested on: 24-month-old male C57BL/6 N mice; assay: Age-related cardiac dysfunction in aged mice; format: in vivo, mouse
# Description: All experimental procedures were approved by the Ethics Review Committee for Animal Experimentation at Kumamoto University, Kumamoto, Japan (approval No. A 2024-083). Procedures followed the guidelines and recommendations outlined by the ILAR Guide for the Care and Use of Laboratory Animals (8th Edition, 2011). Prior to tissue collection, mice were euthanized under isoflurane anesthesia, followed by cervical dislocation to ensure rapid euthanasia, a procedure also employed during sacrifice for tissue harvesting. Euthanasia was performed when animals met the established criteria for humane endpoints, specifically a body weight loss exceeding 20% over a 3-day period or 25% over a 1-week period, in accordance with the Kumamoto University Ethics Review Committee for Animal Experimentation above. All animals fed a normal diet (CE-2, CLEA) were randomly assigned to two groups: tap water only and tap water supplemented with AcA-BRB (0.5 mg/mL). Mice were housed in an animal facility with lighting cycles automatically controlled (12 h light/12 h dark), maintained at a stable temperature of 22 ± 2 °C and a relative humidity of 40–80%. C57BL/6NJcl wild-type (WT) male mice aged 2, 20, and 24 months were used in this study. Mice were preconditioned by chest hair removal with a topical depilatory (FUJIFILM VisualSonics), anesthetized with 1.5–2.5% isoflurane administered via inhalation, and maintained in a supine position on a dedicated animal handling platform with limbs immobilized for electrocardiogram gating during imaging. Body temperature was kept constant by relaying signals from a rectal probe to a heating pad, while heart and respiratory rates were continuously monitored. Transthoracic echocardiography was performed using a high-frequency ultrasound system dedicated to small-animal imaging (VisualSonics Vevo 3100, FUJIFILM VisualSonics) using a MS 400 linear array transducer (18–38 MHz). M-mode recording was performed at the midventricular level in the short-axis view. All images were analyzed using dedicated software (Vevo LAB version 5.7.1). LV wall thickness and internal cavity diameters at diastole (LVID;d) and systole (LVID;s) were measured. Percent LV fractional shortening (%FS) and Left Ventricular Ejection Fraction (LVEF) was calculated from M-mode measurements. To analyze cardiac diastolic function, trans-mitral flow velocity patterns and early diastolic mitral annular velocity (e’) were measured in the four-chamber view to calculate the ratio of early trans-mitral flow velocity (E) to e’ (E/e’). All procedures were performed under double-blind conditions with regard to genotype or treatment. Total RNA was extracted using a RNeasy Mini Kit (Qiagen). DNase-treated RNA was reverse-transcribed using a PrimeScript RT reagent Kit (Takara Bio). Heart tissue was homogenized using a multi-beads shocker (Yasui Kikai). Real-time quantitative RT-PCR was performed using TB Green Premix Ex Taq II (Takara Bio), and a Thermal Cycler Dice Real-Time System (Takara Bio). Relative transcript abundance was normalized to 18S rRNA levels. Primer sets used for RT-PCR are listed in Supplementary Table 3.
# [2] = AcA-BRB 0.5 mg/mL in drinking water, 24-month-old mice, vs control
# [3] = AcA-BRB 0.5 mg/mL in drinking water, aged mice
structure (smiles),measurement,setting,value
COc1ccc2cc3[n+](cc2c1O)CCc1cc2c(cc1-3)OCO2 [berberrubine],mitochondrial ROS (4-HNE levels in isolated mitochondrial fractions),C2C12 cells,modest increase
same,survival rate,86-week-old aged mice,did not significantly affect
same,blood pressure and heart rate vs control mice,"[1]; 24-month-old mice, 3 months of treatment with AcA-BRB",comparable
same,"age-related progression of left ventricular dilatation, systolic dysfunction and diastolic dysfunction (echocardiography)","[1]; AcA-BRB 0.5 mg/mL in drinking water, 24-month-old mice, after 12 weeks, vs control",ameliorated
same,"cardiac hypertrophy (HW/TL ratio, histology) and pulmonary congestion (LW/TL ratio)",[1]; [2],improved
same,"upregulation of genes associated with heart failure and cardiac fibrosis (qRT-PCR, heart)",[1]; [2],blocked
same,LC3A/B II/I ratio in heart tissues (western blot),[1]; [3],increase
same,expression of genes associated with ROS-scavenging systems (heart),[1]; [3],upregulated
same,"expression of genes associated with mitochondrial biogenesis, dynamics and mitophagy (heart)",[1]; [3],significantly increased
same,p62 levels in heart tissues (western blot),[1]; [3],decrease
